We go through three compounds from BindingDB's records for PubMed 10869410 (Centre De Recherches De Croissy, 2000).

SMILES strings stand for the structures. Where “and” joins values, the source holds several entries; their conditions need not be identical. Identical values can stand only once.

Assay [1] has as its target T1, Alpha-2A adrenergic receptor [16-465] (Rattus norvegicus, UniProt P22909).
T1 construct: 16-465
T1 sequence (P22909 whole entry): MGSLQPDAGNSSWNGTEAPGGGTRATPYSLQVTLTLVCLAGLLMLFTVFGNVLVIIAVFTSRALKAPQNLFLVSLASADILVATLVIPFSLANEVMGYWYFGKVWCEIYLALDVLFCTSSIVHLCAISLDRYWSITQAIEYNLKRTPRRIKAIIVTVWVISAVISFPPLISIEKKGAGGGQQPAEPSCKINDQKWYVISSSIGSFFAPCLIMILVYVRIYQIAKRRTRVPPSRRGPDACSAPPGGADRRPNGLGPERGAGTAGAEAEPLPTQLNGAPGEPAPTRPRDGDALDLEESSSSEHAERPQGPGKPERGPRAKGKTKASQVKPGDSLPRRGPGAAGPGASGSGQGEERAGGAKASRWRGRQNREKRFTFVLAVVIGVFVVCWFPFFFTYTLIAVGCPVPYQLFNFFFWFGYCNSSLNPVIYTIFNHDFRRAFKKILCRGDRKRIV

Assay [2] deals with T2, D(4) dopamine receptor (Homo sapiens, UniProt P21917).
T2 sequence (P21917 whole entry): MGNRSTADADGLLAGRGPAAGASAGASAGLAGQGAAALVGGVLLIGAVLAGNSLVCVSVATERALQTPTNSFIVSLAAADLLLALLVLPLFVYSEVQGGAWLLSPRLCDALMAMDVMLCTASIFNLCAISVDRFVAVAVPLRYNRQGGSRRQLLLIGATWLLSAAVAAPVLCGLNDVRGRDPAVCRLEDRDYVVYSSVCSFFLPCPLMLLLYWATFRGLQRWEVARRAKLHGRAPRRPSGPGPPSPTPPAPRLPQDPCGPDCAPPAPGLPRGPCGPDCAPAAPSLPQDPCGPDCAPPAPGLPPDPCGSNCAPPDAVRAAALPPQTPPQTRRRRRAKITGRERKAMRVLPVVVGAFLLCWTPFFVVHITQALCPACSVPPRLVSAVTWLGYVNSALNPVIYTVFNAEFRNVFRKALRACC

Assay [3] addresses D(3) dopamine receptor (Homo sapiens, UniProt P35462).
For assay [4], the target named is T3, 5-hydroxytryptamine receptor 1A (Rattus norvegicus, UniProt P19327).
T3 sequence (P19327 whole entry): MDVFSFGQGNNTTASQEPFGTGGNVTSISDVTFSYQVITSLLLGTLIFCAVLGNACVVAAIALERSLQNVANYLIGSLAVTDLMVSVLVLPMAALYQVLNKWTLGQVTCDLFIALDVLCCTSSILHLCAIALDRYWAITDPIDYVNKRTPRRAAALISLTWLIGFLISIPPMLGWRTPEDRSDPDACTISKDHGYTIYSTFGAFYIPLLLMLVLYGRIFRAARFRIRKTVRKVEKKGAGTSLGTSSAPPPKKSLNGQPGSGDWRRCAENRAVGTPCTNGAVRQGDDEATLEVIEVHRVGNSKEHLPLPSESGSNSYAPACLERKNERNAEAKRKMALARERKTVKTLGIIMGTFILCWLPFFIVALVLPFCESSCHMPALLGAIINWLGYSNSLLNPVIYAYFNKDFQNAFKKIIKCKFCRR

The target in assay [5] is 5-hydroxytryptamine receptor 2C (Homo sapiens, UniProt P28335).
Chain of 5-hydroxytryptamine receptor 2C (Homo sapiens, UniProt P28335) (P28335 whole entry): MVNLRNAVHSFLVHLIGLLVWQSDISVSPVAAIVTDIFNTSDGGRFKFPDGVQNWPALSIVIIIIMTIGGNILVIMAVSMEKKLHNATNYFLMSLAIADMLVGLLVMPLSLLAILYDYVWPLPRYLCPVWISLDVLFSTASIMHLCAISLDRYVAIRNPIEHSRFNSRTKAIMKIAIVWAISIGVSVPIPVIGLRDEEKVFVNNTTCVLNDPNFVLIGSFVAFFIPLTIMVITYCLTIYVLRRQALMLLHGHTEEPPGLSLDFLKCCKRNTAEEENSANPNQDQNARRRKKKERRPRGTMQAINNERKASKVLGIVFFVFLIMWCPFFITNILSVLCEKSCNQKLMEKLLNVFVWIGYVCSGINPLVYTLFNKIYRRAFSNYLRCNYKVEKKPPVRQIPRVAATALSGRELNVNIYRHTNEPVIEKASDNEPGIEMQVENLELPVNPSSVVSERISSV
Assay [6] deals with D(1A) dopamine receptor (Homo sapiens, UniProt P21728).
Chain of D(1A) dopamine receptor (Homo sapiens, UniProt P21728) (P21728 whole entry): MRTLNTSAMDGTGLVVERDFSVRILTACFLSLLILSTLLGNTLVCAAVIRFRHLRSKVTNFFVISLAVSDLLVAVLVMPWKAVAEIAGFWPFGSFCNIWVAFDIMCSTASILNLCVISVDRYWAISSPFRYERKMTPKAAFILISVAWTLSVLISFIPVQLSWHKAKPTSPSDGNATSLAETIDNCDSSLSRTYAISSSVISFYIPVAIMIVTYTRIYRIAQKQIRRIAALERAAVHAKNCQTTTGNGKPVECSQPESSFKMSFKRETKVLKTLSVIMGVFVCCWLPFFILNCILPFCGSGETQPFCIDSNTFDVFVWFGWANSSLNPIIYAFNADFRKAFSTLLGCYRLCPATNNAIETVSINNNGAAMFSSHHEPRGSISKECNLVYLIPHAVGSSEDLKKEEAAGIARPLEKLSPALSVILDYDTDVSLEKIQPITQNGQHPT
In assay [7] the target is 5-hydroxytryptamine receptor 1B (Homo sapiens, UniProt P28222).
Chain of 5-hydroxytryptamine receptor 1B (Homo sapiens, UniProt P28222) (P28222 whole entry): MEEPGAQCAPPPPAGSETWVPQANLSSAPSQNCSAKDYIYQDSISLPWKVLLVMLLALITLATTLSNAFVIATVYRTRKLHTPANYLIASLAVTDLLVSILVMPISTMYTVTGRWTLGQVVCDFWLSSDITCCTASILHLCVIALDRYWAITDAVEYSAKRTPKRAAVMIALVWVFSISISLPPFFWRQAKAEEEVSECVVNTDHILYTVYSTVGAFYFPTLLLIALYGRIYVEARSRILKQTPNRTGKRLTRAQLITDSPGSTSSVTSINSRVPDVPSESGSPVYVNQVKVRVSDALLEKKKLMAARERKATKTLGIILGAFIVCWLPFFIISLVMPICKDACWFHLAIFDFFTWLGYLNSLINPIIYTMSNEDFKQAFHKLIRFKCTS
Assay [8] has as its target Sigma non-opioid intracellular receptor 1 (Cavia porcellus, UniProt Q60492).
Assay [9] concerns the target 5-hydroxytryptamine receptor 2B (Homo sapiens, UniProt P41595).
Assay [10] concerns the target D(1B) dopamine receptor (Homo sapiens, UniProt P21918).
In assay [11] the target is 5-hydroxytryptamine receptor 2C (Sus scrofa, UniProt G7ZKZ7).
Assay [12] concerns the target D(2) dopamine receptor (Homo sapiens, UniProt P14416).
Assay [13] concerns the target 5-hydroxytryptamine receptor 2A (Rattus norvegicus, UniProt P14842).
The target of assay [14] is T4, Alpha-1A adrenergic receptor (Rattus norvegicus, UniProt P43140).
T4 sequence (P43140 whole entry): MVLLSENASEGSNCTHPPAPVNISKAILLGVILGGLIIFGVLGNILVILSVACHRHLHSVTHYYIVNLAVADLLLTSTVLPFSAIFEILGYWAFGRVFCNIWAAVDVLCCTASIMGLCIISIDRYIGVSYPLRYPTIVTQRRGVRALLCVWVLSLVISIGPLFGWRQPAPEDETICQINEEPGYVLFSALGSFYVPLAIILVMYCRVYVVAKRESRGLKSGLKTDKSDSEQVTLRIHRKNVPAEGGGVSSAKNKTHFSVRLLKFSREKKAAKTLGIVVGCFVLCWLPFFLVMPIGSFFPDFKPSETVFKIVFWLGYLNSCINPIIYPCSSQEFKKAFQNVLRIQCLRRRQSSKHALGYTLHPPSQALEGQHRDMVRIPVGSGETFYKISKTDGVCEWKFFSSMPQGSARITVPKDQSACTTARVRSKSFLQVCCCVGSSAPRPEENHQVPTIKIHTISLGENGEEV

For assay [15], the target named is 5-hydroxytryptamine receptor 2A (Homo sapiens, UniProt P28223).
The target in assay [16] is D(2) dopamine receptor (Rattus norvegicus, UniProt P61169).
Chain of D(2) dopamine receptor (Rattus norvegicus, UniProt P61169) (P61169 whole entry): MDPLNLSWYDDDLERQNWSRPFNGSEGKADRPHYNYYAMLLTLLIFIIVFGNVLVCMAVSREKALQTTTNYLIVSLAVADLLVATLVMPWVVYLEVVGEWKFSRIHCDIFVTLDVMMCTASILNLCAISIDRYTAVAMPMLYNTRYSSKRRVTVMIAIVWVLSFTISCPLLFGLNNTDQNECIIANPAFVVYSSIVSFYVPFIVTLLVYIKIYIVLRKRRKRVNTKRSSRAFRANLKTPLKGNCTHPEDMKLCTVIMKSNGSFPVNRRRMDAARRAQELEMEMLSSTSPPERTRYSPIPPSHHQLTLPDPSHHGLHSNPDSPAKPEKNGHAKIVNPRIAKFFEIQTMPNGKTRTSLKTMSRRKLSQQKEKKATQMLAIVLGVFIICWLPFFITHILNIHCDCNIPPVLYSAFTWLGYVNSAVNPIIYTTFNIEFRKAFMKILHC
Assay [17] deals with 5-hydroxytryptamine receptor 1D (Homo sapiens, UniProt P28221).
Chain of 5-hydroxytryptamine receptor 1D (P28221 whole entry): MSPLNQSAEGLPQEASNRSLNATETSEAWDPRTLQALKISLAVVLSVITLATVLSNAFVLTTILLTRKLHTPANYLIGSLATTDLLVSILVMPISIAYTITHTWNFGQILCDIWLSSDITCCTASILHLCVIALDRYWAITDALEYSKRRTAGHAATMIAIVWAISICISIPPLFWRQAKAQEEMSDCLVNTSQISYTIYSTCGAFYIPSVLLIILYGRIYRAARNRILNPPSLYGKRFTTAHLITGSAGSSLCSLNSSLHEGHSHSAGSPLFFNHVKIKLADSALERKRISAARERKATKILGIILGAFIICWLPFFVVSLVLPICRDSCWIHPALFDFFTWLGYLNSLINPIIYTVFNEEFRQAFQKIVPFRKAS
For assay [18], the target named is 5-hydroxytryptamine receptor 1A (Homo sapiens, UniProt P08908).
Assay [19] has as its target 5-hydroxytryptamine receptor 3A (Homo sapiens, UniProt P46098).
Assay [20] has as its target Muscarinic acetylcholine receptor M1 (Homo sapiens, UniProt P11229).
Assay [21] deals with 5-hydroxytryptamine receptor 1B (Cavia porcellus, UniProt O08892).
The target in assay [22] is D(1A) dopamine receptor (Rattus norvegicus, UniProt P18901).

Chain of D(2) dopamine receptor (Homo sapiens, UniProt P14416) (P14416 whole entry): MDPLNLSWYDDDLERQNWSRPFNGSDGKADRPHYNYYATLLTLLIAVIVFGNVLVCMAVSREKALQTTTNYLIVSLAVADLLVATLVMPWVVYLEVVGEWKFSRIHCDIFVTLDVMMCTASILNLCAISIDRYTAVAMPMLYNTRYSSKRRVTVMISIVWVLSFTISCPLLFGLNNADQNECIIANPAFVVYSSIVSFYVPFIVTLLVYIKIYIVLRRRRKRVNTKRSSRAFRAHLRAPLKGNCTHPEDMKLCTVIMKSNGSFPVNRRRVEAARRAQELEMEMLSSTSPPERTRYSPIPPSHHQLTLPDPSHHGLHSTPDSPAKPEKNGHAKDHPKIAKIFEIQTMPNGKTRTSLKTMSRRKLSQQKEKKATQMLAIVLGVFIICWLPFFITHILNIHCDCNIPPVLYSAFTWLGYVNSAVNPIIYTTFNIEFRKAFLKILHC
Chain of 5-hydroxytryptamine receptor 2B (P41595 whole entry): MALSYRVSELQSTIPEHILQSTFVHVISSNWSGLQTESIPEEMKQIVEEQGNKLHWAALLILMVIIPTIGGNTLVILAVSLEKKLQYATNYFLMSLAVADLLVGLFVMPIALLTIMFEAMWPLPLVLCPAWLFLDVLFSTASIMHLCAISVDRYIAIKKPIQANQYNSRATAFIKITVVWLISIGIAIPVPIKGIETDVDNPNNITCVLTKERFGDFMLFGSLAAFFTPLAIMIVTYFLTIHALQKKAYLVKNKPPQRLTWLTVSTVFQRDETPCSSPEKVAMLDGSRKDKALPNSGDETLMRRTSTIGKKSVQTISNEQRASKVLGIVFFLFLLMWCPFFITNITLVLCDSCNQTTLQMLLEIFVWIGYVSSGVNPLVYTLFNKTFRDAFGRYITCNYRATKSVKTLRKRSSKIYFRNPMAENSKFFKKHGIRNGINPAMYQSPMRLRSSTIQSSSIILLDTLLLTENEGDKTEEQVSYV
Chain of 5-hydroxytryptamine receptor 2A (Rattus norvegicus, UniProt P14842) (P14842 whole entry): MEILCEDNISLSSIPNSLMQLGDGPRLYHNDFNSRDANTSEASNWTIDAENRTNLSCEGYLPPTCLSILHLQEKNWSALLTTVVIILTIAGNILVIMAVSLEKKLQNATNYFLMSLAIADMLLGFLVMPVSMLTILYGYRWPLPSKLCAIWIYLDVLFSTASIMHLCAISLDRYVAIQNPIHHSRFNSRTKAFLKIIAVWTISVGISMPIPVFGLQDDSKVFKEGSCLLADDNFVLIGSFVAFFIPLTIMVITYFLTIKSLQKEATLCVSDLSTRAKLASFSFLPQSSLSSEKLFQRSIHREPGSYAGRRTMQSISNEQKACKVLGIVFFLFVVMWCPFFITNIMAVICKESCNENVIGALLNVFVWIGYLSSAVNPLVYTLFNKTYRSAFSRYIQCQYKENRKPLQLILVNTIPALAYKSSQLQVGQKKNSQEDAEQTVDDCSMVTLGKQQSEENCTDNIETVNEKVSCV
Chain of D(3) dopamine receptor (P35462 as listed by the source): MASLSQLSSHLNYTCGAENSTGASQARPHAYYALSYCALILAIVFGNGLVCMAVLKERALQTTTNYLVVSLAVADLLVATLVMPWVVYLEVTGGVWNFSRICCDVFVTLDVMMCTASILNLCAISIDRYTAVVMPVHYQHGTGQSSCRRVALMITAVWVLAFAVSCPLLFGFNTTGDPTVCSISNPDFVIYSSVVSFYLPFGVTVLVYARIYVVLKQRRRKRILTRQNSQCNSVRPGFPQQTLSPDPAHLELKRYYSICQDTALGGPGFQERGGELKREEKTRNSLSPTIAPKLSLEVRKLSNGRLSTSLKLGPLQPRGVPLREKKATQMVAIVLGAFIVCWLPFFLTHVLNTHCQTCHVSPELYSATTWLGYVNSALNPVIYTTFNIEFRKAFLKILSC
Chain of D(1B) dopamine receptor (P21918 whole entry): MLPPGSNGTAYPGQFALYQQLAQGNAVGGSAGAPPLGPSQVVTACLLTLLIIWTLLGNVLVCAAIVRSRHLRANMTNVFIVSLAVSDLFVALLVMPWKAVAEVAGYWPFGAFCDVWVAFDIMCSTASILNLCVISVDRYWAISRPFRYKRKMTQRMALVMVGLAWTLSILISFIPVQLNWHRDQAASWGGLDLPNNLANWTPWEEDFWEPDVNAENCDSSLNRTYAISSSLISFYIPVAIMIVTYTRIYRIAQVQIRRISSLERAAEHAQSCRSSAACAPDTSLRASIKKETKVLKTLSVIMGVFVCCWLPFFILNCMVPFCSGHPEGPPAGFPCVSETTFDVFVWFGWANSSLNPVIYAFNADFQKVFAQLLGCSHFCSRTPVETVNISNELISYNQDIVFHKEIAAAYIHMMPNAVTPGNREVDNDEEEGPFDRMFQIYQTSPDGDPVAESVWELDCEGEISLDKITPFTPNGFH
Chain of Sigma non-opioid intracellular receptor 1 (Q60492 whole entry): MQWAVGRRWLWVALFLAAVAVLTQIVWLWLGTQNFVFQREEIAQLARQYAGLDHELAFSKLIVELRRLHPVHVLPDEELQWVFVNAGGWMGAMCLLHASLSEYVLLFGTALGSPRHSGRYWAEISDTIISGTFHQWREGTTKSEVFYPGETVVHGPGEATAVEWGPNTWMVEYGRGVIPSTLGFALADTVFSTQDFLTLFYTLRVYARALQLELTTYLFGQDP

Take `CCCN(CCC)C1CCc2cc(CS(=O)(=O)c3ccc(OC)cc3)ccc2C1` (stereo not given) [GR218231]: the Ki (as a rule, the dissociation constant of the complex between target and ligand, obtained from inhibition or displacement) in assay [1] is 398 nM; in [2], more than 10000 nM; in assay [3] it was 1 nM and 1.35 nM; in assay [4], 501 nM; in [5], 1000 nM; in assay [6] it was 1000 nM. The Ki in assay [7] was 1000 nM; in [8] it was 158 nM; in [9], 1000 nM; in assay [10], 1000 nM; in assay [11] it was 1000 nM; in assay [12] it was 63.1 nM and 138 nM. For the same compound, the inhibition constant (Ki) in assay [13] is 1000 nM; in assay [14] it was 1000 nM; in [15], 1000 nM; in assay [16], 79.4 nM; in [17], 1000 nM.

`OC1(c2ccc(Cl)cc2)CCN(Cc2c[nH]c3ccccc23)CC1` [L741,626]: the Ki in assay [1] was 1260 nM; in assay [2], 316 nM; in [3], 63.1 nM and 87.1 nM; in assay [4], 3980 nM; in assay [7], 1000 nM; in assay [9], 631 nM. The Ki came out at 631 nM in assay [10]; 3980 nM in [11]; 1000 nM in assay [13]; 251 nM in assay [14]; 6.31 nM in assay [16]; 1000 nM in assay [17].

With `N#Cc1ccc2c(c1)[C@H]1CN(CCCCNC(=O)c3ccc(-c4ccccc4)cc3)C[C@@H]1CO2` [S33084], the Ki in assay [1] was 1000 nM; in assay [18] it was 1000 nM; in assay [2], 2000 nM; in assay [3] it was 0.25 nM and 0.4 nM; in [4], 126 nM; in [5], 79.4 nM. Besides, the Ki amounted to 501 nM in assay [6]; 1000 nM in assay [19]; 398 nM in assay [20]; 794 nM in [7]; 1000 nM in [8]; 158 nM in assay [9]. The Ki in [10] was found to be 1260 nM; in [21], 1000 nM; in assay [12], 52.5 nM; in assay [13], 1000 nM; in assay [14], 126 nM; in assay [15], 1000 nM. Also, the figures for the inhibition constant Ki in [16], in assay [17] and in [22] were 50.1 nM, 126 nM and 1000 nM, respectively.
